Assay [1] deals with T1, Heat shock protein HSP 90-beta (Homo sapiens, UniProt P08238). As to the kind of experiment: Thermofluor Assay. The text has this: Thermofluor Assay
In general terms: Differential scanning fluorimetry follows unfolding on heating by fluorescence.

In assay [2] the target is T1, Heat shock protein HSP 90-beta. As to the kind of experiment: ITC.
Description: ITC

Where only a bound is given, the exact number is not on record here.

What is called Kd is the constant that tells how readily two partners part at equilibrium.

T1 sequence (P08238 whole entry): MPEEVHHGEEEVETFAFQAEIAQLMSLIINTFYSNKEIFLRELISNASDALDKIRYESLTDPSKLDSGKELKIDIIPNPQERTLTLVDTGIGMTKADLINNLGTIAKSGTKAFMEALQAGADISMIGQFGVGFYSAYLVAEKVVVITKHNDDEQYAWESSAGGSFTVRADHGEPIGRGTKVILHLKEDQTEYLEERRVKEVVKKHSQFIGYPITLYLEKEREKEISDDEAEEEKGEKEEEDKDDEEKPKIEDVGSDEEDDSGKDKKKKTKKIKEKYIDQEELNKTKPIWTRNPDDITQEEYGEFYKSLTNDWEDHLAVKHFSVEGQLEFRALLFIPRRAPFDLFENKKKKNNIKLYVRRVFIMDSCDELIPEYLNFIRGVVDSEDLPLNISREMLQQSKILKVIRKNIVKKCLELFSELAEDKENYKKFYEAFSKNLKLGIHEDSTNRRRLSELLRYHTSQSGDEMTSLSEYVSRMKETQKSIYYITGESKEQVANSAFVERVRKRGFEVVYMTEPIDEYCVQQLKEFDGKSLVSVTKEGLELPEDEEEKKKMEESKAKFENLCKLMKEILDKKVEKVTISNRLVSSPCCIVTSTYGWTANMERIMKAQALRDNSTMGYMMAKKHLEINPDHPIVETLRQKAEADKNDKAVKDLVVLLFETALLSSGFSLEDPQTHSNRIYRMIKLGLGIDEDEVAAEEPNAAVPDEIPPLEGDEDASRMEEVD

As to `O=C(c1ccc(O)cc1O)c1ccc(O)c(O)c1O` [Polyhydroxy benzophenone, 8], in assay [1], the Kd was greater than 100 µM. For the compound `O=C(c1cccc(O)c1)c1ccc(O)cc1O` [Polyhydroxy benzophenone, 12], the Kd came out at 28.9 µM in assay [1] and 11.5 µM in assay [2]. In the same order, the values of `O=c1[nH]c2ccccc2n1-c1cc(-c2ccccc2O)c(O)cc1O` [hsp90_10] are 4.58 µM and 6.58 µM. For `CCCc1cc(-n2c(=O)[nH]c3ccccc32)c(O)cc1O` [hsp90_12], the values for the Kd in assay [1] and in assay [2] were 0.123 µM and 0.0686 µM, respectively. As for `COC(=O)c1cc(-n2c(=O)[nH]c3cc(C(F)(F)F)cc(Cl)c32)c(O)cc1OC` [hsp90_13], in assay [1], the Kd was greater than 100 µM. `O=c1[nH]c2ccccc2n1-c1cc(-c2ccnc3ccccc23)c(O)cc1O` [hsp90_23]: binding in assay [2] was characterised by a dissociation constant (Kd) of 3.06 µM.

`COc1cc(-c2cc(-n3c(=O)[nH]c4ccccc43)c(O)cc2O)cc(OC)c1OC` [hsp90_24]: the Kd in assay [1] came to 0.993 µM; in assay [2] it was 10.3 µM. In the same order, the values of `O=c1[nH]c2ccccc2n1-c1cc(-c2cccnc2O)c(O)cc1O` [hsp90_34] are 94.8 µM and 54 µM.

In assay [1], `CC1c2cc(-n3c(=O)[nH]c4ccccc43)c(O)cc2OC1(C)C` (centres undefined) [hsp90_35] had a Kd greater than 100 µM. In the case of `CC(C)c1ccc(S(=O)(=O)NCc2ccc3c(c2)[nH]c(=O)n3-c2cc(Cl)c(O)cc2O)cc1` [hsp90_38], the Kd in assay [1] is 0.225 µM; in assay [2], 0.115 µM. For `CCc1cc(-n2c(=O)[nH]c3ccccc32)c(O)cc1O` [hsp90_40], the Kd in assay [1] stood at 0.165 µM; in assay [2], 0.069 µM.

With `O=c1[nH]c2cc(CNS(=O)(=O)c3ccccc3O)ccc2n1-c1cc(Cl)c(O)cc1O` [hsp90_43], the Kd in assay [1] was 0.172 µM; in assay [2], 0.0107 µM. In the same order, the values of `O=c1[nH]c2cc(CNS(=O)(=O)c3cccnc3)ccc2n1-c1cc(Cl)c(O)cc1O` [hsp90_44] are 0.376 µM and 0.0268 µM. In the same order, the values of `COc1cccc(OC)c1-c1cc(C)nc(N)n1` [hsp90_70] are 2.28 µM and 1.48 µM. In the same order, the values of `Cc1cc(-c2ccc([N+](=O)[O-])cc2Cl)nc(N)n1` [hsp90_73] are 4.53 µM and 0.393 µM.

Compound `Nc1nc(-c2ccc(C(F)(F)F)cc2Cl)cc(-c2ccc(C(F)(F)F)cc2Cl)n1` [hsp90_77] came in with a Kd in assay [1] greater than 100 µM. Still for that read-out and setting: the figure for `COc1ccc(-c2cc(-c3ccc(Cl)cc3Cl)nc(N)n2)c(OC)c1` [hsp90_84] is 265 µM; for `Nc1nc(Cl)c(/C=N/O)c(-c2ccc(Cl)cc2Cl)n1` [hsp90_87] it is 2.25 µM; for `CCOC(=O)CO/N=C/c1c(Cl)nc(N)nc1-c1ccc(Cl)cc1Cl` [hsp90_91] it is 11.2 µM. Turning to `Cc1cc(-n2nc(C(=O)NCC3COC(C)(C)O3)cc2C)nc(N)n1` (centres undefined) [hsp90_95], the Kd in assay [1] worked out at 91 µM; in assay [2], 64 µM. In assay [1], `Cc1cc(CNC(=O)N2CCN(S(C)(=O)=O)C2=O)nc(N)n1` [hsp90_120] showed a Kd greater than 100 µM.

Consider `Cn1c2c([n+](C)c1CCl)C(=O)c1ccccc1C2=O` [hsp90_128], for which the Kd in assay [1] was greater than 100 µM.

Turning to `CCCC(=O)c1cc(O)c(O)c(O)c1` [hsp90_151], the Kd in assay [1] was greater than 100 µM. In the case of `O=C(c1ccc(O)cc1)c1cc(Cl)ccc1O` [hsp90_164], the Kd in assay [1] was determined as 7.51 µM; in assay [2] it was 8.33 µM. With `CC(=O)Oc1ccc([N+](=O)[O-])c2ccccc12` [hsp90_165], the Kd in assay [1] is greater than 100 µM. Still for that read-out and setting: then `O=C(CCl)NCc1cc(C(=O)c2ccc(OCCO)c(Cl)c2Cl)cc(Cl)c1O` [hsp90_171], with greater than 100 µM; and `CC(=O)Oc1ccc2c(=O)c(Cc3ccccc3)c(C)oc2c1OC(C)=O` [hsp90_174], with greater than 100 µM. On to `O=C(c1ccc(O)cc1)c1ccc(O)cc1O` [hsp90_176], for which the Kd in assay [1] amounted to 10.6 µM; in assay [2], 3.11 µM. Consider `Nc1nc(N)nc(-c2ccccc2Cl)n1` [hsp90_179], for which the Kd came out at 20.4 µM in assay [1] and 7.45 µM in assay [2].

The record behind these values is BindingDB's records for doi:10.7270/Q2VX0FC0 (D3R/Abbott, 2016).
